According to US20210038607A1, “OXADIAZOLYLTHIOPHENE DERIVATIVES USEFUL AS HISTONE DEACETYLASE INHIBITORS” (Karus Therapeutics Limited, priority 2018, published 2021):

Columns and labels:
Human HDAC1 = molecular target: T1, Human HDAC1 (Homo sapiens, UniProt Q13547); assay: HDAC1 biochemical assay, AMC-labeled peptide substrate; settings: read-out: HDAC Isoform IC50 (nM) 1
T1 construct: full length with C-terminal His-tag and C-terminal FLAG-tag; His (C); FLAG (C); host or cells: baculovirus expression system
Procedure: (§1) Activity against all zinc-dependent HDACs 1 to 11 was assessed by using an acetylated AMC-labeled peptide substrate. The substrate RHKK(Ac)AMC was used for HDAC1, HDAC2, HDAC3, HDAC6 and HDAC10; the substrate used for HDAC8 was RHK(Ac)K(Ac)AMC. Activity against the class IIa HDACs (HDAC4, 5, 7, 9) and HDAC11 was determined using a class IIa-specific substrate, BOC-Lys(trifluoroacetyl)-AMC (“Trifluoroacetyl Lysine”; see Lahm et al, 2007, PNAS, 104, 17335-17340). All assays were based on the AMC-labeled substrate and developer combination.
(§2) The protocol involved a two-step reaction: first, the substrate with the acetylated lysine side chain is incubated with a sample containing HDAC activity, to produce the deacetylated products, which are then digested in the second step by the addition of developer to produce the fluorescent signal proportional to the amount of deacetylated substrates.
Human HDAC1 (GenBank Accession No. NM_004964), full length with C-terminal His-tag and C-terminal FLAG-tag, MW=56 kDa, expressed in baculovirus expression system.
(§3) Assay Buffer: 50 mM Tris-HCl, pH8.0, 137 mM NaCl, 2.7 mM KCl, 1 mM MgC2. Before use, 1 mg/mL BSA and DMSO are added.
HDAC1: 0.3 ng/ul HDAC1 and 50 μM HDAC substrate are in the reaction buffer with 1% DMSO final. Incubate for 1 hour at 30° C.
(§4) Stage 1: Deacetylation of substrate by incubation of HDAC enzymes with compounds
(§5) Stage 2: Development by addition of Developer to digest the deacetylated substrate, and generate the fluorescent colour; Detection: 360/460 Ex/Em

Human HDAC4 = molecular target: T2, Human HDAC4 (Homo sapiens, UniProt P56524); assay: HDAC4 biochemical assay, class IIa-specific substrate; settings: read-out: HDAC Isoform IC50 (nM) 4
T2 construct: amino acids 627-1085 with N-terminal GST tag; GST (N); host or cells: baculovirus expression system
Procedure: as §1, §2
Human HDAC4 (GenBank Accession No. NM_006037), amino acids 627-1085 with N-terminal GST tag, MW=75.2 kDa, expressed in baculovirus expression system.
as §3
(§6) For class IIa HDACs, assay buffer is the same.
HDAC4: 0.004 ng/ul HDAC4 and 50 μM Class IIa HDAC substrate are in the reaction buffer with 1% DMSO final. Incubate for 30 minutes at room temperature.
as §4, §5

Human HDAC5 = molecular target: T3, Human HDAC5 (Homo sapiens, UniProt Q9UQL6); assay: HDAC5 biochemical assay, class IIa-specific substrate; settings: read-out: HDAC Isoform IC50 (nM) 5
T3 construct: full length with C-terminal His tag, MW=51.1 kDa; His (C); host or cells: baculovirus expression system
Procedure: as §1, §2
Human HDAC5 (GenBank Accession No. NM_005474), full length with C-terminal His tag, MW=51.1 kDa, expressed in baculovirus expression system.
as §3, §6
HDAC5: 0.05 ng/ul HDAC5 and 50 μM Class IIa HDAC substrate are in the reaction buffer with 1% DMSO final. Incubate for 30 minutes at room temperature.
as §4, §5

Recombinant human HDAC6 = molecular target: T4, Recombinant human HDAC6 (Homo sapiens, UniProt Q9UBN7); assay: HDAC6 biochemical assay, AMC-labeled peptide substrate; settings: HDAC6; read-out: HDAC Isoform IC50 (nM) 6
T4 construct: full length, MW=159 kDa; GST (N); host or cells: Sf9 insect cells (baculovirus)
T4 sequence (Q9UBN7 1-1215): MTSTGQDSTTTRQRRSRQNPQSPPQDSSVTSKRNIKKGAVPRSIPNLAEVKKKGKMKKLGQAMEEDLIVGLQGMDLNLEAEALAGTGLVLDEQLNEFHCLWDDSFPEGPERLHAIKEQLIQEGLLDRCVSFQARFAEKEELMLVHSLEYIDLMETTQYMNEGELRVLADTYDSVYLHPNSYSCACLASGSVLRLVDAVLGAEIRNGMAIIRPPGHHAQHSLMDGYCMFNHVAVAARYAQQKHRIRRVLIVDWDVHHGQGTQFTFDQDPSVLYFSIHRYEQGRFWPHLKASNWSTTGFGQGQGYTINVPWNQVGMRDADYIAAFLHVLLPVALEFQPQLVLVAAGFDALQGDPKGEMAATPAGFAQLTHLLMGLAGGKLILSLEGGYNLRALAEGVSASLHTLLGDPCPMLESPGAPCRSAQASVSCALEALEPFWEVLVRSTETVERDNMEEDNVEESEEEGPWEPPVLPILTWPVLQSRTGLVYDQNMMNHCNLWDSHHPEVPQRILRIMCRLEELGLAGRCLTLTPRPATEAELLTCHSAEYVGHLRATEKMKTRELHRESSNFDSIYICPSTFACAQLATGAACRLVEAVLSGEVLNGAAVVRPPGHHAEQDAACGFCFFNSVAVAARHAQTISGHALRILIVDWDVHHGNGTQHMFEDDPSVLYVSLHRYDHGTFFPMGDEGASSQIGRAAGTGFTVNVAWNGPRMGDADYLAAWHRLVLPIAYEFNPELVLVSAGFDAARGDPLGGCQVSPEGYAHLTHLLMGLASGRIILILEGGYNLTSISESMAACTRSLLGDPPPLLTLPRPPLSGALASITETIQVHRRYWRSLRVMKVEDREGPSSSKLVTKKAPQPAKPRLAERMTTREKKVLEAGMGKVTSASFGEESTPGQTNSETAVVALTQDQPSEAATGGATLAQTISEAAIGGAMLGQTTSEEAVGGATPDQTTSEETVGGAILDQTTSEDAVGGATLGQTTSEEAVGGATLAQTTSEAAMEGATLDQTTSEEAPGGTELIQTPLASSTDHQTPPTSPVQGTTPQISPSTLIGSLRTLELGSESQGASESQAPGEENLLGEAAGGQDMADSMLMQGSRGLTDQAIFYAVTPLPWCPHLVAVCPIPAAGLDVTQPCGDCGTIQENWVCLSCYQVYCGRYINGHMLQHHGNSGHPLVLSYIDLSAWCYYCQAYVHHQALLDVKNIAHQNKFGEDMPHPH
Procedure: as §1, §2
Recombinant human HDAC6 (GenBank Accession No. BC069243), full length, MW=159 kDa, was expressed by baculovirus in Sf9 insect cells using an N-terminal GST tag.
as §3
HDAC6: 0.3 ng/ul HDAC6 and 50 μM HDAC substrate are in the reaction buffer with 1% DMSO final. Incubate for 1 hours at 30° C.
as §4, §5

Human HDAC7 = molecular target: T5, Human HDAC7 (Homo sapiens, UniProt Q8WUI4); assay: HDAC7 biochemical assay, class IIa-specific substrate; settings: read-out: HDAC Isoform IC50 (nM) 7
T5 construct: (a.a. 518-end) with N-terminal GST tag; GST (N); host or cells: baculovirus expression system
T5 sequence (Q8WUI4 518-952 limits assumed): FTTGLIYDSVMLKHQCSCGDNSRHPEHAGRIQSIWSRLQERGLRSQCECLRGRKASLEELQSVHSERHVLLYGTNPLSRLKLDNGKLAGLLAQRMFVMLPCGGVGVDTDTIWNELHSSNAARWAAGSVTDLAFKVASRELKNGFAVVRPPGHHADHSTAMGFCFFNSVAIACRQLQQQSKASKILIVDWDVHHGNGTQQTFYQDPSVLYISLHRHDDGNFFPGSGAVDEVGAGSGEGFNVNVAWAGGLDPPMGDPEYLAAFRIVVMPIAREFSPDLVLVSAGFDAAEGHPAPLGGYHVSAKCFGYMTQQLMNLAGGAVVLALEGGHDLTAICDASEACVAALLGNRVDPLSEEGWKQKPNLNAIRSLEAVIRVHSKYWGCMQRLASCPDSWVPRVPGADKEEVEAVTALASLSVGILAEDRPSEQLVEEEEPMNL
Procedure: as §1, §2
Human HDAC7 (GenBank Accession No. AY302468), (a.a. 518-end) with N-terminal GST tag, MW=78 kDa, expressed in baculovirus expression system.
as §3, §6
HDAC7: 0.001 ng/ul HDAC7 and 50 μM Class IIa HDAC substrate are in the reaction buffer with 1% DMSO final. Incubate for 30 minutes at room temperature.
as §4, §5

Human HDAC9 = molecular target: T6, Human HDAC9 (Homo sapiens, UniProt Q9UKV0); assay: HDAC9 biochemical assay, class IIa-specific substrate; settings: read-out: HDAC Isoform IC50 (nM) 9
T6 construct: amino acids 604-1066 with C-terminal His tag; His (C); host or cells: baculovirus expression system
Procedure: as §1, §2
Human HDAC9 (GenBank Accession No. NM_178423), amino acids 604-1066 with C-terminal His tag, MW=50.7 kDa, expressed in baculovirus expression system.
as §3, §6
HDAC9: 0.06 ng/ul HDAC9 and 50 μM Class IIa HDAC substrate are in the reaction buffer with 1% DMSO final. Incubate for 30 minutes at room temperature.
as §4, §5

T2 sequence (P56524 627-1084 limits assumed): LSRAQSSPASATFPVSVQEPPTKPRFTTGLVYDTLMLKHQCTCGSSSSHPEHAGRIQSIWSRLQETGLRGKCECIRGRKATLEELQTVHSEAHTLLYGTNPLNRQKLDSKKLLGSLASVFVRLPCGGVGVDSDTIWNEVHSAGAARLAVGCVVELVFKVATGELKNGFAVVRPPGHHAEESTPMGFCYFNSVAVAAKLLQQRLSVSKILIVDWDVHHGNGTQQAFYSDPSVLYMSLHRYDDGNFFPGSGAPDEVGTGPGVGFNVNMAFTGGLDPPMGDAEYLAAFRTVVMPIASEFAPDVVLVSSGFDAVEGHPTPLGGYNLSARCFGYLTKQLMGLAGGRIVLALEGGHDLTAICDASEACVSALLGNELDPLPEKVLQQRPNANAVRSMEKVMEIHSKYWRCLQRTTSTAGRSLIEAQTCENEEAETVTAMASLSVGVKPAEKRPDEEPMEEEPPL
T3 sequence (Q9UQL6 656-1122 limits assumed): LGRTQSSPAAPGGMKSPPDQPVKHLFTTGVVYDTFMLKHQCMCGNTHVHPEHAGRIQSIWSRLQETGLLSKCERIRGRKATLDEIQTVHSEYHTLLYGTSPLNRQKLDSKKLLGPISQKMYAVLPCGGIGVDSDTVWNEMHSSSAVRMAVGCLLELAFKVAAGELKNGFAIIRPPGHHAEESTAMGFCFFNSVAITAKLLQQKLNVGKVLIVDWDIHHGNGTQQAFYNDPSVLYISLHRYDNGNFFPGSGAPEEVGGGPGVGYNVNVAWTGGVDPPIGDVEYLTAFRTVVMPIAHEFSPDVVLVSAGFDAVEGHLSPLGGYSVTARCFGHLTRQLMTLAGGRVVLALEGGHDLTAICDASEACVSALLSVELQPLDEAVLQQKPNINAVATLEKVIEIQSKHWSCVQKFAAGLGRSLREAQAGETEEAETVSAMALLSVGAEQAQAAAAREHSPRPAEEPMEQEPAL
T1 sequence (Q13547 whole entry, canonical isoform): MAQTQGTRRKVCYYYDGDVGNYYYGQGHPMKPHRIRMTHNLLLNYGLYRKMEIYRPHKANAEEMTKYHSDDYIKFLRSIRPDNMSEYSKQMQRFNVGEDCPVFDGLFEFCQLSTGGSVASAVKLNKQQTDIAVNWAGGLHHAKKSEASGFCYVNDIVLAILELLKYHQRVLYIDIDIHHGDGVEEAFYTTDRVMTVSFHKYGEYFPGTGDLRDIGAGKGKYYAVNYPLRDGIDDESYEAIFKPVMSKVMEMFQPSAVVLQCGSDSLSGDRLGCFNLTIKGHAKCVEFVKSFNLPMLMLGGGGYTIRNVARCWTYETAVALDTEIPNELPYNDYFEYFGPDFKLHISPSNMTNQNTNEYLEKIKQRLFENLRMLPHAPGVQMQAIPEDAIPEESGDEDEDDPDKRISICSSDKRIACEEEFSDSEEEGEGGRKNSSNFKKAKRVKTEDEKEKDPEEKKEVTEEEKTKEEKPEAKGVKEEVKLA
T6 sequence (Q9UKV0 604-1066 isoform Q9UKV0-5): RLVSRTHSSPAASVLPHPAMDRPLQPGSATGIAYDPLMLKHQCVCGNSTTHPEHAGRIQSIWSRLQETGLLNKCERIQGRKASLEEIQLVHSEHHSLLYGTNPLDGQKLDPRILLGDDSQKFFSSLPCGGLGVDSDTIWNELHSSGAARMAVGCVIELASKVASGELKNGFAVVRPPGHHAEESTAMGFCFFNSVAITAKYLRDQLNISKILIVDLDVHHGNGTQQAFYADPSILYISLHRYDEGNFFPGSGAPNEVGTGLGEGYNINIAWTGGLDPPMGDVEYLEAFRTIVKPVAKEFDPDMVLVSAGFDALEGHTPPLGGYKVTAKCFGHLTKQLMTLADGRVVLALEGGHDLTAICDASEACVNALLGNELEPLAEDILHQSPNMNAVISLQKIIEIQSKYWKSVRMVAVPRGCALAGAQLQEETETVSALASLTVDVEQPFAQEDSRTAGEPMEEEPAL

Row | IC50 (Human HDAC1) | IC50 (Human HDAC4) | IC50 (Human HDAC5) | IC50 (Recombinant human HDAC6) | IC50 (Human HDAC7) | IC50 (Human HDAC9) | SMILES
1 | > 10000 nM | ≤ 10000 nM | ≤ 1000 nM | ≤ 10000 nM | ≤ 10000 nM | ≤ 10000 nM | COc1cnnc(N(Cc2ccc(-c3noc(C(F)(F)F)n3)s2)c2cnccn2)c1 [Example DV, 5-Methoxy-N-(pyrazin-2-yl)-N-({5-[5-(trifluoromethyl)-1,2,4-oxadiazol-3-yl]thiophen-2-yl}methyl)pyridazin-3-amine]
2 | > 10000 nM | ≤ 10000 nM | ≤ 10000 nM | ≤ 10000 nM | ≤ 10000 nM | > 10000 nM | FC(F)(F)c1cnnc(N(Cc2ccc(-c3noc(C(F)(F)F)n3)s2)c2ncccc2N2CCOCC2)c1 [Example EH, N-[3-(Morpholin-4-yl)pyridin-2-yl]-5-(trifluoromethyl)-N-({5-[5-(trifluoromethyl)-1,2,4-oxadiazol-3-yl]thiophen-2-yl}methyl)pyridazin-3-amine]
3 | > 10000 nM | ≤ 500 nM | ≤ 500 nM | ≤ 10000 nM | ≤ 1000 nM | ≤ 1000 nM | Cc1cnc(C)c(N(Cc2ccc(-c3noc(C(F)(F)F)n3)s2)c2cnccn2)n1 [Example BU, 3,6-Dimethyl-N-(pyrazin-2-yl)-N-({5-[5-(trifluoromethyl)-1,2,4-oxadiazol-3-yl]thiophen-2-yl}methyl)pyrazin-2-amine]
4 | > 10000 nM | ≤ 1000 nM | ≤ 10000 nM | ≤ 10000 nM | ≤ 10000 nM | ≤ 10000 nM | FC(F)(F)c1nc(-c2ccc(CN(c3cnccn3)c3cnsn3)s2)no1 [Example S, N-(1,2,5-Thiadiazol-3-yl)-N-({5-[5-(trifluoromethyl)-1,2,4-oxadiazol-3-yl]thiophen-2-yl}methyl)pyrazin-2-amine]
5 | > 10000 nM | ≤ 500 nM | ≤ 1000 nM | ≤ 1000 nM | ≤ 1000 nM | ≤ 10000 nM | COc1nccc(N(Cc2ccc(-c3noc(C(F)(F)F)n3)s2)c2cnccn2)n1 [Example CB, 2-Methoxy-N-(pyrazin-2-yl)-N-({5-[5-(trifluoromethyl)-1,2,4-oxadiazol-3-yl]thiophen-2-yl}methyl)pyrimidin-4-amine]

More lines, now with the values behind:

Row | SMILES | IC50 (Human HDAC1) | IC50 (Human HDAC4) | IC50 (Human HDAC5) | IC50 (Recombinant human HDAC6) | IC50 (Human HDAC7) | IC50 (Human HDAC9)
6 | FC(F)(F)c1nc(-c2ccc(CN(c3ccc(N4CCCC4)nc3)c3cnccn3)s2)no1 [Example AP, N-[6-(Pyrrolidin-1-yl)pyridin-3-yl]-N-({5-[5-(trifluoromethyl)-1,2,4-oxadiazol-3-yl]thiophen-2-yl}methyl)pyrazin-2-amine] | > 10000 nM | ≤ 10000 nM | ≤ 10000 nM | > 10000 nM | ≤ 10000 nM | ≤ 10000 nM
7 | Fc1cnc(N(Cc2ccc(-c3noc(C(F)(F)F)n3)s2)c2cnccn2)nc1 [Example AX, 5-Fluoro-N-(pyrazin-2-yl)-N-({5-[5-(trifluoromethyl)-1,2,4-oxadiazol-3-yl]thiophen-2-yl}methyl)pyrimidin-2-amine] | > 10000 nM | ≤ 10000 nM | ≤ 10000 nM | ≤ 10000 nM | ≤ 10000 nM | ≤ 10000 nM
8 | Cn1cnc2cc(N(Cc3ccc(-c4noc(C(F)(F)F)n4)s3)c3cnccn3)ncc21 [Example AE, N-{3-Methyl-3H-imidazo[4,5-c]pyridin-6-yl}-N-({5-[5-(trifluoromethyl)-1,2,4-oxadiazol-3-yl]thiophen-2-yl}methyl)pyrazin-2-amine] | > 10000 nM | ≤ 500 nM | ≤ 500 nM | ≤ 10000 nM | ≤ 1000 nM | ≤ 10000 nM
9 | CN(C)C(=O)c1cncc(N(Cc2ccc(-c3noc(C(F)(F)F)n3)s2)c2cnccn2)n1 [Example BS, N,N-Dimethyl-6-[(pyrazin-2-yl)({5-[5-(trifluoromethyl)-1,2,4-oxadiazol-3-yl]thiophen-2-yl}methyl)amino]pyrazine-2-carboxamide] | > 10000 nM | ≤ 10000 nM | ≤ 10000 nM | ≤ 10000 nM | ≤ 10000 nM | ≤ 10000 nM
